From PubChem BioAssay AID330 (DTP/NCI, 2004)
“And” between values parts separate entries of the source, which are not always exact repeats. Equal values may be shown once. Inconclusive results and toxic doses are left out. The calls were made as follows: active = survival T/C of 150% or more; inactive = T/C below 125% in these data.

Test system: P388 leukemia ip, CD2F1 mice, survival T/C
Assay: NCI In Vivo Anticancer Drug Screen. Data for tumor model P388 Leukemia (intraperitoneal) in CD2F1 (CDF1) mice
Settings: endpoint: median survival time, higher = longer survival
In short: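 Mice carrying the transplanted tumor received test compound or vehicle. Survival was recorded in each group, and the value is the treated-group measurement divided by that of the vehicle-treated control group.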

[1] = dose: 60.0 mg/kg/injection, schedule: Q01DX005 (ip), vehicle: saline with Tween-80
[2] = dose: 120.0 mg/kg/injection, schedule: Q01DX005 (ip), vehicle: saline with Tween-80
[3] = dose: 240.0 mg/kg/injection, schedule: Q01DX005 (ip), vehicle: saline with Tween-80
[4] = dose: 50.0 mg/kg/injection, schedule: Q01DX001 (ip), vehicle: Klucel (hydroxypropylcellulose) (HPC)
[5] = dose: 100.0 mg/kg/injection, schedule: Q01DX001 (ip), vehicle: Klucel (hydroxypropylcellulose) (HPC)
[6] = dose: 50.0 mg/kg/injection, schedule: Q01DX005 (ip), vehicle: saline with Tween-80
[7] = dose: 100.0 mg/kg/injection, schedule: Q01DX005 (ip), vehicle: saline with Tween-80
[8] = dose: 200.0 mg/kg/injection, schedule: Q01DX005 (ip), vehicle: saline with Tween-80
[9] = dose: 12.5 mg/kg/injection, schedule: Q01DX009 (ip), vehicle: saline
[10] = dose: 25.0 mg/kg/injection, schedule: Q01DX009 (ip), vehicle: saline
[11] = dose: 50.0 mg/kg/injection, schedule: Q01DX009 (ip), vehicle: saline
[12] = dose: 100.0 mg/kg/injection, schedule: Q01DX009 (ip), vehicle: saline with Tween-80
[13] = dose: 200.0 mg/kg/injection, schedule: Q01DX009 (ip), vehicle: saline with Tween-80
[14] = dose: 100.0 mg/kg/injection, schedule: Q01DX009 (ip), vehicle: saline
[15] = dose: 200.0 mg/kg/injection, schedule: Q01DX009 (ip), vehicle: saline
[16] = dose: 50.0 mg/kg/injection, schedule: Q01DX005 (ip), vehicle: Klucel (hydroxypropylcellulose) (HPC)
[17] = dose: 100.0 mg/kg/injection, schedule: Q01DX005 (ip), vehicle: Klucel (hydroxypropylcellulose) (HPC)
[18] = dose: 200.0 mg/kg/injection, schedule: Q01DX005 (ip), vehicle: Klucel (hydroxypropylcellulose) (HPC)
[19] = dose: 50.0 mg/kg/injection, schedule: Q01DX009 (ip), vehicle: Klucel (hydroxypropylcellulose) (HPC)
[20] = dose: 100.0 mg/kg/injection, schedule: Q01DX009 (ip), vehicle: Klucel (hydroxypropylcellulose) (HPC)
[21] = dose: 200.0 mg/kg/injection, schedule: Q01DX009 (ip), vehicle: Klucel (hydroxypropylcellulose) (HPC)

Measured: T/C

CC[PH+](CC)CC.[Cl][Au]
inactive: dose: 1.25 mg/kg/injection, schedule: Q01DX009 (ip), vehicle: Klucel (hydroxypropylcellulose) (HPC) 100 % of control | dose: 2.5 mg/kg/injection, schedule: Q01DX009 (ip), vehicle: Klucel (hydroxypropylcellulose) (HPC) 99 % of control and 121 % of control | dose: 5.0 mg/kg/injection, schedule: Q01DX009 (ip), vehicle: Klucel (hydroxypropylcellulose) (HPC) 114 % of control (2×) and 123 % of control | dose: 10.0 mg/kg/injection, schedule: Q01DX009 (ip), vehicle: Klucel (hydroxypropylcellulose) (HPC) 124 % of control

CCC1(C2OC(C3OC(O)(CO)C(C)CC3C)CC2C)CCC(C2(C)CCC3(CC(O)C(C)C(C(C)C(OC)C(C)C(=O)O)O3)O2)O1 (stereo unspecified)
inactive: dose: 3.13 mg/kg/injection, schedule: Q01DX005 (ip), vehicle: saline with Tween-80 110 % of control and 112 % of control | dose: 6.25 mg/kg/injection, schedule: Q01DX005 (ip), vehicle: saline with Tween-80 108 % of control and 111 % of control and 118 % of control | dose: 12.5 mg/kg/injection, schedule: Q01DX005 (ip), vehicle: saline with Tween-80 120 % of control

CN(C)c1nc2ccccn2c1C(=O)c1ccccc1
inactive: dose: 100.0 mg/kg/injection, schedule: Q04DX003 (ip), vehicle: Klucel (hydroxypropylcellulose) (HPC) 103 % of control | dose: 200.0 mg/kg/injection, schedule: Q04DX003 (ip), vehicle: Klucel (hydroxypropylcellulose) (HPC) 100 % of control | dose: 400.0 mg/kg/injection, schedule: Q04DX003 (ip), vehicle: Klucel (hydroxypropylcellulose) (HPC) 103 % of control

N#Cc1ccc(NC(=O)Nc2ccc([N+](=O)[O-])cc2Cl)cc1
inactive: [1] 93 % of control | [2] 86 % of control | [3] 89 % of control and 92 % of control

C[Si](C)(C)N1CCOC1=O
inactive: [1] 109 % of control | [2] 103 % of control | [3] 108 % of control

O=Nc1ccc(O)c2ncccc12
inactive: [4] 111 % of control | [5] 121 % of control

O=c1nc2n(c3ncccc13)CC=NN2
inactive: [1] 99 % of control | [2] 100 % of control

Cc1ccc(S(=O)(=O)/C=C2\COc3ccccc3C2=O)cc1
inactive: dose: 100.0 mg/kg/injection, schedule: Q04DX002 (ip), vehicle: saline 100 % of control | dose: 200.0 mg/kg/injection, schedule: Q04DX002 (ip), vehicle: saline 100 % of control | dose: 400.0 mg/kg/injection, schedule: Q04DX002 (ip), vehicle: saline 97 % of control

O=C1CSCN1N1CSCC1=O
inactive: [6] 101 % of control | [7] 102 % of control | [8] 98 % of control

CCCCCCCCCC[N+](C)(C)CC(O)CO (stereo unspecified)
inactive: [9] 94 % of control | [10] 105 % of control | [11] 111 % of control

CNc1ccc(Cl)cc1SSc1cc(Cl)ccc1NC
inactive: [4] 100 % of control | [5] 100 % of control | dose: 200.0 mg/kg/injection, schedule: Q01DX001 (ip), vehicle: Klucel (hydroxypropylcellulose) (HPC) 100 % of control

C/C(C=O)=C\c1ccc(N(C)C)cc1
inactive: dose: 60.0 mg/kg/injection, schedule: Q01DX005 (ip), vehicle: Klucel (hydroxypropylcellulose) (HPC) 101 % of control | dose: 120.0 mg/kg/injection, schedule: Q01DX005 (ip), vehicle: Klucel (hydroxypropylcellulose) (HPC) 101 % of control | dose: 240.0 mg/kg/injection, schedule: Q01DX005 (ip), vehicle: Klucel (hydroxypropylcellulose) (HPC) 100 % of control

CCc1ncc(CO)n1Cc1cccc2ccccc12
inactive: dose: 50.0 mg/kg/injection, schedule: Q01DX009 (ip), vehicle: saline with Tween-80 100 % of control | [12] 102 % of control | [13] 103 % of control

CCCCCC(Nc1nncs1)Nc1nncs1
inactive: [1] 94 % of control | [2] 96 % of control | [3] 105 % of control

NC(Cc1cnc[nH]1)C(=O)O (stereo unspecified)
inactive: [11] 110 % of control | [14] 107 % of control | [15] 110 % of control

CCN(CC)C1CS(=O)(=O)OC(c2ccccc2)=C1C (stereo unspecified)
inactive: [6] 100 % of control | [7] 102 % of control | [8] 100 % of control

Cc1ccc(-c2cs/c(=N\N=C3/CSC(=O)N3Cc3ccccc3)n2-c2ccc(C)cc2)cc1
inactive: dose: 100.0 mg/kg/injection, schedule: Q04DX002 (ip), vehicle: Klucel (hydroxypropylcellulose) (HPC) 100 % of control | dose: 200.0 mg/kg/injection, schedule: Q04DX002 (ip), vehicle: Klucel (hydroxypropylcellulose) (HPC) 107 % of control | dose: 400.0 mg/kg/injection, schedule: Q04DX002 (ip), vehicle: Klucel (hydroxypropylcellulose) (HPC) 102 % of control

COc1c(OC)c(OC)c(-c2cc(=O)c3c(OC)c(OC)c(OC)c(OC)c3o2)c(OC)c1OC
inactive: [16] 94 % of control | [17] 88 % of control | [18] 91 % of control

CC(=O)OCC1OC(n2cc(C)c(=O)[nH]c2=O)CC1OC(C)=O (stereo unspecified)
inactive: [12] 110 % of control | dose: 100.0 mg/kg/injection, schedule: Q04DX003 (ip), vehicle: saline with Tween-80 100 % of control | [13] 110 % of control | dose: 200.0 mg/kg/injection, schedule: Q04DX003 (ip), vehicle: saline with Tween-80 100 % of control | dose: 400.0 mg/kg/injection, schedule: Q01DX009 (ip), vehicle: saline with Tween-80 110 % of control | dose: 400.0 mg/kg/injection, schedule: Q04DX003 (ip), vehicle: saline with Tween-80 104 % of control

O=C(O)c1ccccc1SSC(=S)N1CCOCC1
inactive: [19] 93 % of control | [20] 108 % of control | [21] 118 % of control

CNC(=O)c1ccccc1C(=O)c1ccccc1OC
inactive: [16] 104 % of control | [17] 99 % of control | [18] 97 % of control

COc1cc(S(=O)(=O)O)ccc1N=N/C(=N\Nc1ccc(S(=O)(=O)O)cc1OC)C(N)=O
inactive: [16] 100 % of control | [17] 108 % of control and 92 % of control | [18] 103 % of control and 93 % of control

Nc1ccc(S(=O)(=O)Nc2cnc3c(Cl)cccc3n2)cc1
inactive: dose: 50.0 mg/kg/injection, schedule: Q01DX005 (ip), vehicle: DMSO 98 % of control and 99 % of control | [16] 108 % of control | dose: 100.0 mg/kg/injection, schedule: Q01DX005 (ip), vehicle: DMSO 108 % of control and 116 % of control | [17] 106 % of control | dose: 200.0 mg/kg/injection, schedule: Q01DX005 (ip), vehicle: DMSO 121 % of control | [18] 111 % of control | dose: 400.0 mg/kg/injection, schedule: Q01DX005 (ip), vehicle: DMSO 120 % of control

C[C@@]12CCCC[C@@H]1Nc1ccccc12
inactive: [1] 98 % of control | [2] 100 % of control | [3] 97 % of control

Nc1nnc(Cc2ccc(Cl)cc2)o1
inactive: [1] 95 % of control | [2] 105 % of control | [3] 105 % of control

CCCCNCCC1(CCC(C)C)C(=O)NC(=O)NC1=O
inactive: [16] 96 % of control | [17] 105 % of control | [18] 101 % of control

[O-][n+]1cccc(O)c1
inactive: [10] 100 % of control and 102 % of control | [11] 102 % of control and 108 % of control | [14] 102 % of control and 92 % of control | [15] 100 % of control and 108 % of control | dose: 400.0 mg/kg/injection, schedule: Q01DX009 (ip), vehicle: saline 103 % of control and 97 % of control | dose: 600.0 mg/kg/injection, schedule: Q01DX009 (ip), vehicle: saline 108 % of control and 117 % of control

O=C(Oc1ccccc1)c1cc2ccccc2cc1O
inactive: dose: 6.25 mg/kg/injection, schedule: Q01DX009 (ip), vehicle: saline 100 % of control | [9] 103 % of control | [10] 100 % of control

CNC(=O)OCc1c(Cl)nc2n1CCS2
inactive: dose: 25.0 mg/kg/injection, schedule: Q01DX001 (ip), vehicle: Klucel (hydroxypropylcellulose) (HPC) 109 % of control | [4] 109 % of control | [5] 106 % of control

CCCCCCCCCCCCCCOC(=O)c1ccc(O)cc1
inactive: [19] 94 % of control | [20] 101 % of control | [21] 89 % of control

COC1(CO)C(=O)N(C)CC(=O)N1C (stereo unspecified)
inactive: dose: 60.0 mg/kg/injection, schedule: Q01DX005 (ip), vehicle: saline 106 % of control | dose: 120.0 mg/kg/injection, schedule: Q01DX005 (ip), vehicle: saline 106 % of control
